Laboratory results published in BindingDB's records for doi:10.1021/jm990309x (University of New Mexico, 1999).

Biological target: Bile salt-activated lipase (Sus scrofa)
Assay: Inhibition of the Pancreatic Cholesterol Esterase from porcine

Row | Ki [nM] | Structure (SMILES)
1 | 2200 | O=c1oc(Cl)ccc1CC1CCCCC1 [6-Chloro-3-cyclohexylmethyl-pyran-2-one]
2 | 25 | O=c1oc(Cl)ccc1CCC1CCCCC1 [6-Chloro-3-(2-cyclohexyl-ethyl)-pyran-2-one]
3 | 60 | O=c1oc(Cl)ccc1CCCC1CCCCC1 [6-Chloro-3-(3-cyclohexyl-propyl)-pyran-2-one]
